Laboratory results reported in patent publication US6046329A, “Uracil derivatives” (Byk Gulden Lomberg Chemische Fabrik GmbH, priority 1994, dated 2000).

Key:
α1A receptor = molecular target: T1, α1A receptor (Rattus norvegicus, UniProt P43140); test: Radioligand binding with [3H]prazosine, affinity for α1A receptor subtype; settings: membranes from rat brain cortex, IC50 corrected according to Cheng and Prusoff; for Ki: read-out: Receptor affinity α1A, expressed in pKI values (converted)
T1 construct: membranes from rat brain cortex; from tissue; host or cells: rat brain cortex membranes
T1 sequence (P43140 1-466): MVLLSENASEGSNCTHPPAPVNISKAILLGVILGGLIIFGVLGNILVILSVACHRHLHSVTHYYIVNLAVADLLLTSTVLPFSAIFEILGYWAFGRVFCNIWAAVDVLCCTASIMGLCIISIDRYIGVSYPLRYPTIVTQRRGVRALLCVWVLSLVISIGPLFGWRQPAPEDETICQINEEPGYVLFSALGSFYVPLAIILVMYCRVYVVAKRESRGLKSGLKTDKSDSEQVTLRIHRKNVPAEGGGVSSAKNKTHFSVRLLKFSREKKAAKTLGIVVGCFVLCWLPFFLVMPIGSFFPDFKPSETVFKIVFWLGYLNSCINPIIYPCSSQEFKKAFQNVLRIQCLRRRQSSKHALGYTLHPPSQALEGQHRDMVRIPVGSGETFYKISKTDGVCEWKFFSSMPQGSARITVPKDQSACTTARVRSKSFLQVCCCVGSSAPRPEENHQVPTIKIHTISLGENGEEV
Method: (§1) The affinity of substances for α1 receptor subtypes was determined in radioligand binding studies using [^3 H]prazosine as a radioligand. 50-200 μg of membranes from rat brain cortex were incubated in a total volume of 0.5-1 ml with [^3 H]prazosine (0.2 to 0.5 nmol/l) in the presence of rising concentrations of substances. The incubation buffer used was 50 mmol/l tris/HCl pH 7.5, 1 mmol/l EDTA, 0.1 mmol/l PMSF. The nonspecific binding was determined in separate batches in the presence of 10 μmol/l of phentolamine or 1 μmol/l of prazosine. After 1 h at 37° C., the bound radioactivity was separated from the free radioactivity by rapid filtration of the incubation batch at 0° C. through glass fiber filters. The filters were washed twice with 3.5 ml each of cold filtration buffer (50 mmol/l tris/HCl pH 7.4, 10 mmol/l MgCl2, 10% polyethylene glycol 6000). The filter-bound radioactivity was determined by liquid scintillation counting. Substances with subtype selectivity for the α1 receptor subtypes were tested again in the presence of 3 nmol/l of WB 4101. WB4101 blocks the binding of [^3 H]prazosine to the α1A receptor subtype and the remaining binding corresponds to that to the α1B receptor.
(§2) For each substance, dose-response curves were plotted by means of nonlinear regression using the Inplot program (GraphPad, Sorento, Calif., USA). IC50 values were corrected by the concentration of the radioligand employed according to the formula of Cheng and Prusoff. The resulting KI values (see following table) represent the affinity of the respective substance for the tested receptor. The compounds according to the invention investigated according to the model illustrated in greater detail above have been provided in the following table with numbers which correspond to the numbers of these compounds in the examples.

5-HT1A receptor = molecular target: T2, 5-HT1A receptor (Sus scrofa, UniProt A0A4X1UTF5); test: Radioligand binding with [3H]8-OH-DPAT, affinity for 5-HT1A receptor; settings: membranes from pig brain cortex, IC50 corrected according to Cheng and Prusoff; for Ki: read-out: Receptor affinity 5-HT1A, expressed in pKI values (converted)
T2 construct: membranes from pig brain cortex; from tissue; host or cells: pig brain cortex membranes
T2 sequence (A0A4X1UTF5 1-422): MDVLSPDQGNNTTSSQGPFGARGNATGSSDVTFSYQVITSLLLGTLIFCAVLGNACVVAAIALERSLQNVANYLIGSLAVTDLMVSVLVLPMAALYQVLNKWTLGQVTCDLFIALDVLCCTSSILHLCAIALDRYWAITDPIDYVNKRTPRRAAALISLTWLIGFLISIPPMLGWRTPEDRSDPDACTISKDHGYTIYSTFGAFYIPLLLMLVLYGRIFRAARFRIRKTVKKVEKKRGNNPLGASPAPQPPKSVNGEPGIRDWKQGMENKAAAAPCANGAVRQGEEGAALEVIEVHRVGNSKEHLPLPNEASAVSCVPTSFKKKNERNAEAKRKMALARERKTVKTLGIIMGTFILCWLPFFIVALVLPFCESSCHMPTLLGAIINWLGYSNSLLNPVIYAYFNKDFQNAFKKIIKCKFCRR
Method: The affinity of substances for the 5-HT1A receptor was determined in radioligand binding studies using [^3 H]8-OH-DPAT as a radioligand. 50-150 μg of membranes from pig brain cortex were incubated in a total volume of 0.25-0.5 ml with [^3 H]8-OH-DPAT (0.2 to 0.4 nmol/l) in the presence of rising concentrations of substances. The incubation buffer used was 50 mmol/l tris/HCl pH 8.2, 1 mmol/l MnCl2. The nonspecific binding was determined in separate batches in the presence of 10 μmol/l of 5-HT. After 30 min at 23° C., the bound radioactivity was separated from the free radioactivity by rapid filtration of the incubation batch at 0° C. through glass fiber filters. The filters were washed twice with 3.5 ml each of cold filtration buffer (50 mmol/l tris/HCl pH 7.4, 10 mmol/l MgCl2, 10% polyethylene glycol 6000). The filter-bound radioactivity was determined by liquid scintillation counting.
as §2

α1B receptor = molecular target: T3, α1B receptor (Rattus norvegicus, UniProt P15823); test: Radioligand binding with [3H]prazosine (in the presence of WB 4101), affinity for α1B receptor subtype; settings: membranes from rat brain cortex, subtype-selective substances tested again in the presence of 3 nmol/l WB 4101, Cheng and Prusoff; for Ki: read-out: Receptor affinity α1B, expressed in pKI values (converted)
T3 construct: membranes from rat brain cortex; from tissue; host or cells: rat brain cortex membranes
T3 sequence (P15823 1-515): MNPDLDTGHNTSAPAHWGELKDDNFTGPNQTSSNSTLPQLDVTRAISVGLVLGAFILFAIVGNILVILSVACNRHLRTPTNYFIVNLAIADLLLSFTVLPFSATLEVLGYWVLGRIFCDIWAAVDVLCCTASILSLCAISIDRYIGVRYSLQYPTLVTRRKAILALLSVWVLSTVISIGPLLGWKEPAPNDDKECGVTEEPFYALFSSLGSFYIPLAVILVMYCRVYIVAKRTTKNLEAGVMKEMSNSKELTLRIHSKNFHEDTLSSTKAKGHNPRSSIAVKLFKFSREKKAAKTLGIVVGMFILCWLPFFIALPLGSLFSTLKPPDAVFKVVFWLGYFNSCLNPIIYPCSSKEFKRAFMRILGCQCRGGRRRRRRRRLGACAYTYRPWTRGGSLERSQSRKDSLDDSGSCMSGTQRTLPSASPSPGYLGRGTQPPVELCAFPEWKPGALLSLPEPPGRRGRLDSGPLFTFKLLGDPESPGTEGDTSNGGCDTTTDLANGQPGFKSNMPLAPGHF
Method: as §1, §2

Row | Structure (SMILES) | Ki (α1A receptor) | Ki (5-HT1A receptor) | Ki (α1B receptor) | Receptor affinity α1A, expressed in pKI values (α1A receptor) | Receptor affinity 5-HT1A, expressed in pKI values (5-HT1A receptor) | Receptor affinity α1B, expressed in pKI values (α1B receptor)
1 | COc1cc(Br)c(Br)cc1N1CCN(CCCNc2c(C)c(=O)n(C)c(=O)n2C)CC1 [Compound 1, 1,3,5-Trimethyl-6-[[3-[4-(3,4-dibromo-6-methoxy-phenyl)-1-piperazinyl]propyl]amino]-2,4(1H,3H)-pyrimidinedione] | 5.01 nM | 1.26 nM | 5.01 nM | – | – | –
2 | COc1ccccc1N1CCN(CCCNc2c(Cc3c(NCCCN4CCN(c5ccccc5OC)CC4)n(C)c(=O)n(C)c3=O)c(=O)n(C)c(=O)n2C)CC1 [Compound 2] | 0.398 nM | 12.6 nM | 0.398 nM | – | – | –
3 | CCOc1ccccc1N1CCN(CCCNc2c(CCC#N)c(=O)n(C)c(=O)n2C)CC1 [Compound 3, 5-Cyanoethyl-1,3-dimethyl-6-[[3-[4-(2-ethoxyphenyl)-1-piperazinyl]propyl]amino]-2,4(1H,3H)-pyrimidinedione] | 0.501 nM | 0.398 nM | 63.1 nM | – | – | –
4 | CCOc1cc(F)ccc1N1CCN(CCCNc2c(Cc3c(NCCCN4CCN(c5ccc(F)cc5OCC)CC4)n(C)c(=O)n(C)c3=O)c(=O)n(C)c(=O)n2C)CC1 [Compound 4, Bis[1,3-dimethyl-6-[[3-[4-(2-ethoxy-4-fluorophenyl)-1-piperazinyl]propyl]amino]-2,4(1H,3H)-pyrimidinedione-5,5'-yl]methane] | 1 nM | 39.8 nM | 1 nM | – | – | –
5 | COc1ccccc1N1CCN(CCCNC(=O)c2cc(=O)n(C)c(=O)n2C)CC1 [Compound 5, 1,3-Dimethyl-2,4(1H,3H)-pyrimidinedione-6-carboxylic acid [[3-[4-(2-methoxyphenyl)-1-piperazinyl]propyl]amide]] | 5.01 nM | 2.51 nM | 251 nM | – | – | –
6 | Cc1c(NCCCN2CCN(c3ccccc3OC(F)(F)C(F)F)CC2)n(C)c(=O)n(C)c1=O [Compound 6, 1,3,5-Trimethyl-6-[[3-[4-(2-tetrafluoro-ethoxyphenyl)-1-piperazinyl]-propyl]amino]-2,4(1H,3H)-pyrimidinedione] | – | – | – | 9.4 | 9.7 | 7.5
7 | C=CCc1c(NCCCN2CCN(c3ccc(F)cc3OCC)CC2)n(C)c(=O)n(C)c1=O [Compound 7, 5-Allyl-1,3-dimethyl-6-[[3-[4-(2-ethoxy-4-fluorophenyl)-1-piperazinyl]propyl]amino]-2,4(1H,3H)-pyrimidinedione] | 0.631 nM | 0.794 nM | 39.8 nM | – | – | –
8 | Cn1c(NCCCN2CCN(c3ccccc3OC(F)(F)C(F)F)CC2)c(CCC#N)c(=O)n(C)c1=O [Compound 8] | – | – | – | 9.2 | 10.0 | 7.5
9 | Cc1c(NCCCN2CCN(c3cccc4c3OCC(CO)O4)CC2)n(C)c(=O)n(C)c1=O (stereo not drawn) [Compound 9, 1,3,5-Trimethyl-6-[[3-[4-((2,3-dihydro-2-hydroxymethyl)-1,4-benzodioxin-5-yl)-1-piperazinyl]propyl]amino]-2,4(1H,3H)-pyrimidinedione] | 2 nM | 0.2 nM | 1580 nM | – | – | –
10 | Cn1c(NCCCN2CCN(c3cccc4c3OCC(CO)O4)CC2)c(Cc2c(NCCCN3CCN(c4cccc5c4OCC(CO)O5)CC3)n(C)c(=O)n(C)c2=O)c(=O)n(C)c1=O (stereo not drawn) [Compound 10, Bis[1,3-dimethyl-6-[[3-[4-((2,3-dihydro-2-hydroxymethyl)-1,4-benzodioxin-5-yl)-1-piperazinyl]propyl]amino]-2,4(1H,3H)-pyrimidinedione-5,5'-yl]methane] | 7.94 nM | 0.501 nM | 7.94 nM | – | – | –
11 | C=CCc1c(NCCCN2CCN(c3ccccc3OC(F)(F)C(F)F)CC2)n(C)c(=O)n(C)c1=O [Compound 11, 5-Allyl-1,3-dimethyl-6-[[3-[4-(2-tetrafluoro-ethoxyphenyl)-1-piperazinyl]propyl]amino]-2,4(1H,3H)-pyrimidinedione] | – | – | – | 9.6 | 9.3 | 7.9
12 | CCOC(=O)c1c(NCCCN2CCN(c3ccccc3OC)CC2)n(C)c(=O)n(C)c1=O [Compound 12, 1,3-Dimethyl-5-ethoxycarbonyl-6-[[3-[4-(2-methoxyhenyl)-1-piperazinyl]propyl]amino]-2,4(1H,3H)-pyrimidinedione] | 25.1 nM | 6.31 nM | 25.1 nM | – | – | –
13 | Cc1c(NCCCN2CCN(c3ccccc3O)CC2)n(C)c(=O)n(C)c1=O [Compound 13, 1,3,5-Trimethyl-6-[[3-[4-(2-hydroxyphenyl)-1-piperazinyl]propyl]amino]-2,4(1H,3H)-pyrimidinedione] | 20 nM | 0.251 nM | 20 nM | – | – | –
14 | COc1cc([N+](=O)[O-])ccc1N1CCN(CCCNc2c(C)c(=O)n(C)c(=O)n2C)CC1 [Compound 14, 1,3,5-Trimethyl-6-[[3-[4-(2-methoxy-4-nitrophenyl)-1-piperazinyl]propyl]amino]-2,4(1H,3H)-pyrimidinedione] | 251 nM | 200 nM | 251 nM | – | – | –
15 | CON=Cc1c(NCCCN2CCN(c3ccccc3OC)CC2)n(C)c(=O)n(C)c1=O [Compound 15, 1,3-Dimethyl-5-methoxyiminomethyl-6-[[3-[4-(2-methoxyohenyl)-1-piperazinyl]propyl]amino]-2,4(1H,3H)-pyrimidinedione] | 5.01 nM | 1.58 nM | 126 nM | – | – | –
16 | COc1ccccc1N1CCN(CCCNc2c(C=NO)c(=O)n(C)c(=O)n2C)CC1 [Compound 16, 1,3-Dimethyl-5-hydroxyiminomethyl-6-[[3-[4-(2-methoxphenyl)-1-piperazinyl]propyl]amino]-2,4(1H,3H)-pyrimidinedione] | 2 nM | 1 nM | 50.1 nM | – | – | –
